Measured values reported in patent US8592394B2, “Synthetic derivatives beta glycolipids and compositions thereof for the treatment of pathologic disorders” (Enzo Therapeutics, Inc., priority 2003, dated 2013).

Columns and labels:
[1] = test system: intrahepatic and intrasplenic lymphocytes; test: FACS analysis of intrahepatic and intrasplenic lymphocytes (NKT, CD4, CD8); assay type: in vivo, mice
Procedure: Splenocytes and intrahepatic lymphocytes were isolated as follows: livers and spleens were kept in RPMI-1640+FCS. Then spleens were crushed through a 70 μm nylon cell strainer (Falcon) and centrifuged (1250 rpm for 7 min) for the removal of cell debris. Red blood cells were lysed with 1 ml of cold 155 mM ammonium chloride lysis buffer and centrifuged (1250 rpm for 3 min). Splenocytes were resuspended with 1 ml RPMI+FCS. Cell viability by trypan blue staining was above 90%. For intrahepatic lymphocytes, livers were crushed through a stainless mesh (size 60, Sigma) and the cell suspension was placed in a 50-ml tube for 5 min. Lymphoprep (10 ml, Ficoll, Axis-Shield PoC AS, Oslo, Norway) was placed under similar volume of cell suspension in 50-ml tubes. Tubes were centrifuged at 1800 rpm for 18 min. Cells in the interface were collected and centrifuged at 1800 rpm for 10 min, to obtain a pellet of cells depleted of hepatocytes to a final volume of 250 μl. Approximately 1×10^6 cells/mouse liver, were recovered.
For ConA induced hepatitis experiments, flow cytometry was performed immediately following splenocyte and hepatic lymphocyte isolation using 1×10^6 lymphocytes in 100 μl PBS with 0.1% BSA. To determine the percentage of NKT lymphocytes, FITC anti-mouse CD3 and PE anti-mouse NK1.1 antibodies were used (eBioscience, USA). CD4 and CD8 subsets were detected using FITC anti-mouse CD3 and PE-anti-mouse CD4 or CD8 antibodies. Cells were incubated for 30 min at 4° C. in the dark, washed, and resuspended in 200 μl of PBS with 0.1% BSA. Analytical cell sorting was performed for 1×10^6 cells from each group using a fluorescence-activated cell sorter (FACSTAR plus, Becton Dickinson). Only live cells were counted, and unstained cells served as controls for background fluorescence. Gates were set on the forward and side scatter to exclude dead cells and red blood cells. Data were analyzed using either the Consort 30 two-color contour plot program (Becton Dickinson, Oxnard, Calif.) or the CELLQuest 25 program.
Assessment of the effect of any of the synthetic analogs on the immune response was next determined by analysis of the cytokine serum level of IFNγ in each animal using a commercial “sandwich” ELISA kit, and by FACS analysis of intrahepatic and intrasplenic (peripheral) lymphocytes levels.

[2] = test system: TNF-α; test: Serum TNF-α by ELISA in ConA induced hepatitis; assay type: in vivo, mice; settings: intraperitoneal
Procedure: Serum levels of IFN-γ, TGF-β, TNF-α IL-2, IL-4, IL-6, IL-10 and IL-12 were determined by “sandwich” ELISA, using commercial kits (Quantikine, R&D Systems, Minneapolis, Minn., USA). Serum insulin was also determined by “sandwich” ELISA too, using the commercial kit of Mercodia AB (Uppsala, Sweden) according to the manufacturer's instructions.

[3] = B6 mice, intraperitoneal, 8 h, p<0.05
[4] = B6 mice, oral administration, p<0.05
[5] = ConA induced hepatitis, C57Bl/6 mice, intraperitoneal, low dosage 1 μg/mice

For CCCCCCCCCCCCCC=CC(O)C(CO[C@@H]1OC(CO)[C@@H](O)C(O)C1O)NC(=S)NC12CC3CC(CC(C3)C1)C2 (stereo in doubt) [ALIB-97, N-adamantyl-N′-glucosylsphingosine thiourea], the “splenic CD3/NKT cells” value ([1]; B6 mice, intraperitoneal, 8 h, p<0.01) was “significantly reduced”, the “decrease of hepatic CD3/NKT cells” value [1, 3] was “more than 55%” and the “splenic CD3/CD4 cells” value [1, 3] was “significantly reduced”. The “splenic CD3/CD4 cells” value ([1]; B6 mice, intraperitoneal, 20 h) was “not affected”, the “increase of hepatic CD3/CD4 cells” value ([1]; B6 mice, intraperitoneal, 20 h, p=0.01) was 33% and the “hepatic CD3/CD8 lymphocytes” value ([1]; B6 mice, oral administration) was “unaffected”. For the same compound, the “decrease in hepatic CD3/NK1.1 lymphocytes” value ([1]; B6 mice, oral administration, after 8 hours, p<0.05) was 73%, the “increase of splenic CD3/NK1.1 lymphocytes” value [1, 4] was greater than 100% and the “reduction of splenic CD3/CD8 cells” value [1, 4] was 30%. For the same compound, the “reduction of splenic CD3/CD4 cells” value ([1]; B6 mice, oral administration, p=0.07) was 23%, the “decrease in hepatic CD3/CD4 lymphocyte ratio” value ([1]; B6 mice, oral administration, p=0.08) was 20% and the “intrahepatic NKT cell levels” value [1, 5] was “decrease”. The “intrahepatic/peripheral ratio of NKT cells” value [1, 5] was “decrease”, the “peripheral/intrahepatic ratio of the CD4/CD8 ratio” value [1, 5] was “increase” and the “serum TNF-α secretion” value ([2]; B6 mice) was “modest effect”. The “serum TNF-α levels” value ([2]; CD1d−/− KO mice) was “decreased” and the “serum TNF-α levels” value ([2]; Jα18−/− KO mice) was “decreased”.
